{"source": "patent US20210378247A1", "about": "(priority 2018, published 2021)", "format_in_all_cases": "in vivo", "key": {"Phakopsora pachyrhizi": {"system": "Phakopsora pachyrhizi", "assay": "Soybean detached leaf disk assay, soybean rust control", "conditions": "detached leaf disks, strains 1×10^8 CFU/mL, azoxystrobin 0.5 ppm", "procedure": "The susceptible soybean cultivar Williams 82 was used. Soybean plants were planted every 2 weeks and placed inside a growth chamber (Percival Scientific, Inc., Boone, Iowa) maintained at 75% relative humidity with a cycle of 14 h of light (350 μmol m^−2 s^−1 PAR) and 10 h of darkness at 24 and 23° C., respectively, for a constant supply of 2 to 3 week-old rust-free leaves. A mixture of P. pachyrhizi urediniospores obtained from infected soybean leaves collected from Gadsden County, Fla. in 2015 and 2016 was used in this experiment. The details of maintenance and increase of P. pachyrhizi urediniospores have been described elsewhere (Twizeyimana and Hartman 2010, Plant Dis. 94:1453-1460).\nLeaf disks (3.5-cm diameter each) were sprayed with 120 μL of each bacterial strain of interest (1×10^8 CFU/mL of sterile distilled water) using a fingertip sprayer (Container & Packaging Supply, Eagle, Id.) fitted to a 15 mL conical centrifuge tube (Fisher Scientific, Cat No. 14-59-53A). […]\nRust severity was scored by counting the number of sporulating uredinia in two arbitrarily selected 1-cm diameter circle of leaf tissue from an inoculated leaf disk (Table 7). Data was analyzed using analysis of variance (ANOVA) in PROC GLM of SAS (version 9.4; SAS Institute Inc., Cary, N.C.) and significant differences (P<0.05) were observed among treatments."}, "Phytophthora infestans": {"system": "Phytophthora infestans", "conditions": "late blight, tomato leaf disk; strains 1×10^8 CFU/ml, mefenoxam 5 ppm; severity assessed after 7 days"}, "[1]": {"system": "Colletotrichum sublineolum", "assay": "Sorghum detached leaf assay, anthracnose disease control", "conditions": "strains 1×10^8 CFU/mL, pyraclostrobin 10 ppm, severity assessed after 7 days", "procedure": "Sorghum cultivar 12-GS9016-KS585 was grown in the greenhouse for a steady supply of leaf tissue for the bacterial strain evaluation. Fully expanded sorghum leaves from 4-6 weeks old plants were excised and cut into equal pieces, 2.5 cm wide. Colletotrichum sublineolum, (obtained from the Dr. Isakeit laboratory at Texas A&M University) was grown on 20% Oatmeal agar for 14 days. The actively growing culture was flooded with sterile distilled water, dislodging the spores. The concentration of the suspension was then adjusted to 1×10^6 spores/mL. Tween 20 was then added to the suspension to 0.05%.\nEach of the bacterial strains of interest was streaked onto Luria Bertani (LB) agar petri plates. A single colony was picked and placed in 50 ml of LB liquid medium or in liquid culture (CHA medium; per L, NaCl (5 g), tryptone (10 g), nutrient broth (8 g), CaCl2 (0.14 mM), MgCl2.6H2O (0.2 mM), and MnCl2.4H2O (0.01 mM)) in a 250-ml flask. […]\nAnthracnose severity was assessed on a scale of 0-4 after 7 days according to Prom, et al., 2016 (Plant Path J. 15(1): 11-16), with few modifications. […] Results (Table 4) were analyzed using analysis of variance (ANOVA) in JMP® (version 13.2.1; SAS Institute Inc., Cary, N.C.) and significant differences (P<0.05) were observed among bacterial strains."}, "Podosphaera xanthii": {"system": "Podosphaera xanthii", "assay": "Detached squash leaf disk assay, powdery mildew control", "conditions": "detached squash leaf disks, tebuconazole 10 ppm, incubated six days", "procedure": "Leaf disks of healthy squash leaves were excised and cut into uniform leaf disks 35 mm in diameter using a large cork borer. An experimental unit consisted of a single leaf disk, each treated with a suspension of the selected bacterium. Treatments included AgBiome strains AIP061382, AIP075655, and AIP029105, and control treatments. Controls were non-inoculated and inoculated leaf disks, and the synthetic fungicide tebuconazole at 10 ppm as a positive control. Bacterial strains were prepared as described in Example 2. Each leaf disk was sprayed with 200 μL of the treatment (bacterial suspension or synthetic fungicide) on the adaxial surface 24 hours before inoculation with the pathogen, Podosphaera xanthii (strain obtained from Dr. McGrath laboratory, Cornell University). After treatment with the fungicide, leaf disks were incubated in the dark for 24 hours at 23° C.\nLeaf disks were inoculated by spraying a 1×10^6 suspension of P. xanthii conidia on the treated leaf surface. Treatments were placed into sealed clear plastic boxes and incubated for six days at 25° C. with a relative humidity of 80% and a 12 hour photoperiod. […] The number of powdery mildew colonies were also recorded for each treatment. […] Data was analyzed in SAS JMP version 14.0."}, "Mycosphaerella fijiensis": {"system": "Mycosphaerella fijiensis", "assay": "Grand Nain leaf piece assay, black sigatoka control", "conditions": "Grand Nain leaf pieces, strains 1×10^8 CFU/mL, mancozeb 10 ppm", "procedure": "The susceptible musa cultivar Grand Nain was used. Plants were maintained in the greenhouse for a constant supply of disease-free leaves. The inoculum used in this evaluation was a M. fijiensis culture obtained from the International of Tropical Agriculture (IITA), Ibadan, Nigeria and was maintained on V8 Juice agar.\nSmaller leaf pieces (4 cm long×3 cm wide) were cut from the excised leaf. Two leaf pieces were placed in plastic petri dishes with adaxial side on agar amended with 5 mg/liter gibberellic acid. Leaf pieces were sprayed with 120 μL of bacterial strain (1×10^8 CFU/mL of sterile distilled water) using a fingertip sprayer. Petri dishes with leaf pieces were incubated at room temperature in the dark for 24 h. Leaf pieces were then inoculated with a mycelial suspension of M. fijiensis, Mycelial fragments scraped from growing cultures were cut in smaller mycelial tips in sterile distilled (in 50 ml conical tubes) using a homogenizer (Omni International, Kennesaw, Ga.). […]\nData recorded was the most progressed stage on inoculated leaves at the time of data collection (there are six recognized stages for black sigatoka symptom development). Data was analyzed using analysis of variance (ANOVA) in PROC GLM of SAS (version 9.4; SAS Institute Inc., Cary, N.C.) and significant differences (P<0.05) were observed among treatments."}, "[2]": {"system": "Colletotrichum sublineolum", "assay": "Greenhouse assay, sorghum anthracnose on sorghum plants", "conditions": "greenhouse sorghum plants cv. Seso3; strains 5 g/L sprayed weekly for three weeks", "procedure": "Sorghum plants (cv. Seso3) were planted in the greenhouse. Thirty five days post planting, the plants were treated with microbial strains (AIP029105, AIP075655 or AIP061382) at the rate of 5 g/L. Other treatments included inoculated check and a fungicide (Mancozeb). The treatments were arranged in a randomized complete block design with three replications, each consisting of three plants. The treatments were sprayed onto the plant until run off. Treatment with biocontrol was done weekly for three consecutive weeks.\nOne day post treatment, the plants were inoculated with a suspension of Colletotrichum sublineolum spores. The inoculum was prepared from a fungal isolate obtained from naturally infected sorghum in Eastern Uganda. The isolate was cultured on potato dextrose agar (PDA; Farm Eur. Laboratories Madrid, Spain), at 26-28° C. for two weeks to achieve sporulation. […]\nDisease incidence was carried out by observing individual plants for the appearance of anthracnose symptoms, starting at 7 days post inoculation, and thereafter on a weekly basis for five weeks. Any plant showing anthracnose symptoms was recorded and contributed to the overall number of infected plants (incidence) succumbing to the disease irrespective of the severity. […] Data was analyzed using analysis of variance (ANOVA) in JMP® (version 14.0.0; SAS Institute Inc., Cary, N.C.)."}}}
{"molecule": "CO/C=C(/C(=O)OC)c1ccccc1Oc1cc(Oc2ccccc2C#N)ncn1", "note": "[Azoxystrobin]", "values": [{"measurement": "Percent Disease Control", "setting": "Phakopsora pachyrhizi", "value": 97.0, "unit": "%"}]}
{"molecule": "COCC(=O)N(c1c(C)cccc1C)[C@H](C)C(=O)OC", "note": "[Mefenoxam]", "values": [{"measurement": "Percent Disease Control, Confirmation", "setting": "Phytophthora infestans", "value": 75.0, "unit": "%"}, {"measurement": "Percent Disease Control, Primary screen", "setting": "Phytophthora infestans", "value": 75.0, "unit": "%"}]}
{"molecule": "COC(=O)N(OC)c1ccccc1COc1ccn(-c2ccc(Cl)cc2)n1", "note": "[Pyraclostrobin]", "values": [{"measurement": "Percent Disease Control, Confirmation", "setting": "[1]", "value": 97.1, "unit": "%"}, {"measurement": "Percent Disease Control, Primary screen", "setting": "[1]", "value": 96.2, "unit": "%"}]}
{"molecule": "CC(C)(C)C(O)(CCc1ccc(Cl)cc1)Cn1cncn1", "note": "(centres unmarked) [Tebuconazole]", "values": [{"measurement": "Percent Disease Control", "setting": "Podosphaera xanthii", "value": 67.0, "unit": "%"}]}
{"molecule": "Mancozeb", "values": [{"measurement": "Percent Disease Control", "setting": "Mycosphaerella fijiensis", "value": 83.7, "unit": "%"}, {"measurement": "Percent Disease Control", "setting": "[2]", "value": 52.9, "unit": "a %"}]}
